{
  "source": "patent US20140329776A1",
  "about": "“Mitochondria-Targeted Antioxidants for Treatment of Age-Related Brain Disorders” (MITOTECH S.A., priority 2011, published 2014)",
  "key": {"AD patients": {"system": "AD patients", "conditions": "human, in vivo; cited from earlier work"}, "[1]": {"system": "hippocampal slice neurons", "assay": "long-term potentiation (LTP) of hippocampal slices treated with Aβ after in vivo treatment", "design": "species or system rat", "conditions": "for neuroprotective activity based on LTP signal, model of Alzheimer disease: administered in vivo to rats prior to extraction of hippocampus, beta-amyloid treatment", "procedure": "FIG. 3B is a graphic representation showing the LTP caused by in vitro addition of Aβ, where the decay of LTP of hippocampal slice neurons characterized by a decrease of pop-spike amplitude (%) in a hippocampal slice treated with Aβ.\nSkQR1 Aβ was added 15 min before the LTP induction with high-frequency electric stimulation (arrow). The decay of LTP (i.e. decrease of pop-spike amplitude) in a hippocampal slice treated with Aβ can be prevented by SkQR1 treatment.\nFIG. 16 is a bar graph comparing the neuroprotective effects of preferred SkQ mitochondria-targeted antioxidants of the invention when administered in vivo in a model of Alzheimer disease.\nAs a model of cell memory, an electric response of a hippocampal slice (long-term potentiation, LTP) was used (Malenka, et al., Science 285:1870-1874 (1999)). A direct experiment was performed showing the prevention of Aβ toxicity in hippocampus by in vivo treatment of rats with 1 μmol SkQR1 per kg of body weight. The compound was injected intraperitoneally into the animal 24 hours before hippocampal slices were obtained to measure LTP. Some slices were pretreated with Aβ for 15 minutes. As is seen in FIG. 3B, Aβ impaired LTP relative to untreated control.\nFIG. 16 provides a comparison of the neuroprotective effects of SkQ1, SkQR1 and C12TPP based on the LTP signal in neurons of hippocampal slices. Ab stands for beta-amyloid treatment. […] All SkQs and C12TPP were administered in vivo to rats prior the extraction of hippocampus."}, "Wistar rats [2]": {"system": "Wistar rats", "assay": "damaged focal volume (morphometry) after focal open severe brain trauma", "type": "in vivo, rat", "conditions": "seventh day after trauma; 100 nmol/kg i.p. 1 h after trauma then daily for four days; mean±SEM", "procedure": "In this study, we, the inventors, employed our modification of the earlier used model of focal open severe brain trauma in rats. The study was performed on male Wistar rats with body weight of 180-250 g. Before the surgery, the animals were anesthetized by an intraperitoneal injection of 3% chloral hydrate (330 mg/kg). To create the trauma, the left frontal part of the skull was trepanized above the sensorimotor cortex zone, and a movable Teflon piston 4 mm in diameter with depth of insertion of 2.5 mm was placed into it; this piston was struck from the height of 10 cm with a 50-g load sliding along a directing rail. Localization of the sensorimotor cortex zone was determined based on data described in [14]. […]\nA magnetic resonance imaging (MRI) study was performed as described in [15] using a BioSpec 70/30 (Bruker, Germany) with magnetic field induction of 7 T and gradient of 105 mT/m. The damaged focal volume was determined morphometrically on the 7th day after the trauma. […] The volume of the lesion was determined as a cylinder with V=ΣSn×d, where d is thickness of the section pair (200 μm); Sn is the area of the lesion in the section in mm2; Σ is the sum of volumes of ischemic damage in the sections using an Image J program (Bethesda Md., USA).\nThe results are expressed as the mean±standard error of mean. […]"}, "[3]": {"system": "hippocampal slice neurons", "assay": "LTP of hippocampal slices, nootropic activity", "conditions": "administered in vivo; FIG. 15", "excerpt": "FIG. 15 is a bar graph showing the nootropic activity of preferred SkQ mitochondria-targeted antioxidants of the invention when administered to animals in vivo."}, "[4]": {"system": "rats after transient middle cerebral artery occlusion", "assay": "limb-placing test after transient middle cerebral artery occlusion", "type": "in vivo, rat", "conditions": "after injection of SkQR1; first day after induction of ischemia", "procedure": "Behavioral tests were performed 1 day before the induction of ischemia and on the first day after the induction of ischemia. The limb-placing test was used to evaluate the neurological deficit estimated by a conventional 14-point scale with modifications as described in Jolkkonen, et al., Eur. J. Pharmacol., 400:211-219 (2000)). The test had 7 limb-placing tasks that assess the sensorimotor integration of forelimb and hindlimb responses to tactile and proprioceptive stimulation."}, "Wistar rats [5]": {"system": "Wistar rats", "assay": "limb-placing test after focal open severe brain trauma", "type": "in vivo, rat", "conditions": "100 nmol/kg i.p. 1 h after trauma then daily for four days, 12-score scale, mean±SEM", "procedure": "In this study, we, the inventors, employed our modification of the earlier used model of focal open severe brain trauma in rats. The study was performed on male Wistar rats with body weight of 180-250 g. Before the surgery, the animals were anesthetized by an intraperitoneal injection of 3% chloral hydrate (330 mg/kg). To create the trauma, the left frontal part of the skull was trepanized above the sensorimotor cortex zone, and a movable Teflon piston 4 mm in diameter with depth of insertion of 2.5 mm was placed into it; this piston was struck from the height of 10 cm with a 50-g load sliding along a directing rail. Localization of the sensorimotor cortex zone was determined based on data described in [14].\nSkQR1 (100 nmol/kg) was injected intraperitoneally 1 h after the trauma and then daily in the same dose during the following four days.\nBehavioral “limb-placing test” was performed 24 h before the operation and then on the third and seventh days after the trauma. […] The resulting score on this scale is determined as the sum of points obtained in six tests assessing the response of the forelimbs and hindlimbs to tactile and proprioceptive stimulation in the presence of obvious reflexes. […]\nThe results are expressed as the mean±standard error of mean. […] The statistical significance of differences in the damaged volumes was assessed using Student's t-test at the significance level of p<0.05."}, "[6]": {"system": "rats after transient middle cerebral artery occlusion", "assay": "transient middle cerebral artery occlusion, brain infarct volume (TTC staining)", "type": "in vivo, rat", "conditions": "single intraperitoneal injection 0.5-2 μmol/kg body weight; 24 h before 60 min occlusion; studied 24 h after occlusion", "procedure": "Several effects of SkQs were observed when brain functions were studied. Where indicated, 1 μmol SkQR1 per kg of body weight was injected intraperitoneally 24 h before the 60 min occlusion of the artery. The ischemia effect was studied 24 h after the occlusion (Plotnikov, et al., Biochemistry (Mosc) 75:145-150 (2010) here and below, p<0.05 for SkQ effect)."}, "mROS": {"system": "mROS", "conditions": "in vivo; cited from earlier work"}},
  "data": [
    {"smiles": "Cc1c(C)c2c(c(C)c1O)CC[C@@](C)(CCC[C@H](C)CCC[C@H](C)CCCC(C)C)O2", "note": "[α-tocopherol]", "values": [
      {"measurement": "efficacy in treating AD patients", "setting": "AD patients", "value": "ineffective"},
      {"measurement": "safety", "setting": "AD patients", "value": "safe"}
    ]},
    {"smiles": "O=C1O[C@H]([C@@H](O)CO)C(O)=C1O", "note": "[ascorbate]", "values": [
      {"measurement": "safety", "setting": "AD patients", "value": "safe"}
    ]},
    {"smiles": "CCCCCCCCCCCC[P+](c1ccccc1)(c1ccccc1)c1ccccc1", "note": "[C12TPP]", "values": [
      {"measurement": "neuroprotective activity compared to SkQ", "setting": "[1]; FIG. 16", "value": "lower but still sufficient"},
      {"measurement": "neuroprotective activity based on LTP signal, model of Alzheimer disease", "setting": "[1]; FIG. 16", "value": "neuroprotective activity"}
    ]},
    {"smiles": "CC/N=c1/cc2oc3cc(NCC)c(C)cc3c(-c3ccccc3C(=O)OCCCCCCCCCCC3=CC(=O)C(C)=C(C)C3=O)c-2cc1C", "note": "[SkQR1, plastoquinonyl decylrhodamine 19]", "values": [
      {"measurement": "damaged volume", "setting": "Wistar rats [2]", "value": "15±4", "unit": "mm3"},
      {"measurement": "LTP signal (nootropic activity)", "setting": "[3]", "value": "clearly stimulates LTP"},
      {"measurement": "behavioral defects, limb-placing test", "setting": "[4]", "value": "decrease"},
      {"measurement": "neuroprotective activity based on LTP signal, model of Alzheimer disease", "setting": "[1]; FIG. 16", "value": "neuroprotective activity"},
      {"measurement": "impairment (decay) of LTP caused by Aβ", "setting": "[1]; in vivo treatment (SkQR1 1 μmol/kg i.p. 24 hours before slices), Aβ added to slices for 15 min", "value": "prevented such impairment"},
      {"measurement": "limb-placing test score, right limbs", "setting": "Wistar rats [5]; seventh day after trauma", "value": "7.4±0.8", "unit": "points"},
      {"measurement": "limb-placing test score, right limbs", "setting": "Wistar rats [5]; third day after trauma", "value": "6.6±0.8", "unit": "points"},
      {"measurement": "infarct volume in brain", "setting": "[6]", "value": "strongly decreased"}
    ]},
    {"smiles": "COC1=C(OC)C(=O)C(CCCCCCCCCC[P+](c2ccccc2)(c2ccccc2)c2ccccc2)=C(C)C1=O", "note": "[MitoQ]", "values": [
      {"measurement": "outcome of targeting the antioxidant to quench mROS", "setting": "mROS", "value": "failed"}
    ]},
    {"smiles": "O=C(O)CCCCC1CCSS1", "note": "(stereo not drawn) [α-lipoate]", "values": [
      {"measurement": "efficacy in treating AD patients", "setting": "AD patients", "value": "ineffective"},
      {"measurement": "safety", "setting": "AD patients", "value": "safe"}
    ]}
  ]
}
